Patent US8044079B2, “Substituted oxindole derivatives, medicaments containing said derivatives and use thereof” (Abbott GmbH & Co. KG, priority 2005, dated 2011)

The compounds below were run against T1, human vasopressin V1b receptor (Homo sapiens, UniProt P47901) (assay: Vasopressin V1b receptor binding test). Conditions: membranes of CHO-K1 cells with human V1b receptor, displacement of 1.5 nM 3H-AVP; for compounds with more than one stereogenic center the diastereomer with greater affinity.
T1 construct: expressed in transfected cells; host or cells: CHO-K1 (cell line hV1b_3H2_CHO), membrane preparation
T1 sequence (P47901 1-424): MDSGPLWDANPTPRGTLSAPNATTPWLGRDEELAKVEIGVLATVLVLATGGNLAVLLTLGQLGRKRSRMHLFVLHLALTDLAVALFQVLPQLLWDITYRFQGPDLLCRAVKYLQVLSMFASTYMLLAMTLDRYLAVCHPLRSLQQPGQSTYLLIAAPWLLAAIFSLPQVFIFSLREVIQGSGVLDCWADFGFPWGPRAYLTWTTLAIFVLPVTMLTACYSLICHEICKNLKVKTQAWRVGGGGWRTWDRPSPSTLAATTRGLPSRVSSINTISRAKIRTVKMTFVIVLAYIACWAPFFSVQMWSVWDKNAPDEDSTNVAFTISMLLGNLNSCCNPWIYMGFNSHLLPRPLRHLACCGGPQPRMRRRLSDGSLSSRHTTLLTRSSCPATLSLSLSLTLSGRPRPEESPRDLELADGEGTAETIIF
Procedure, shortened: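 Radioligand displacement on membranes carrying human V1b receptor in 50 mM tris, 10 mM MgCl2, 0.1% BSA, pH 7.4, 2% DMSO final; 60 min at room temperature, nonspecific binding with 1 μM AVP. Free ligand removed by filtration, bound counted by liquid scintillation, Ki from nonlinear regression of triplicates.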

Row | SMILES | Ki
1 | COc1ccc(S(=O)(=O)N2C(=O)C(c3cc(CNC(C)(C)C)ccc3OC)(N3CCC[C@H]3c3ncco3)c3cc(Cl)ccc32)cc1 (stereo partly drawn) [Example 139, 5-Chloro-3-[5-(tert-butylaminomethyl)-2-methoxyphenyl]-1-(4-methoxybenzenesulfonyl)-3-((S)-2-oxazol-2-yl-pyrrolidin-1-yl)-1,3-dihydroindol-2-one] | 10 to 100 nM
2 | COc1ccc(S(=O)(=O)N2C(=O)C(N[C@@H](C)c3ncco3)(c3cc(CNCCO)ccc3OC)c3cc(Cl)ccc32)cc1 (stereo partly drawn) [Example 140, 5-Chloro-3-{5-[(2-hydroxyethylamino)methyl]-2-methoxyphenyl}-1-(4-methoxybenzenesulfonyl)-3-((S)-1-oxazol-2-yl-ethylamino)-1,3-dihydroindol-2-one] | < 10 nM
3 | COc1ccc(CN2CCN(C)CC2)cc1C1(N2CCC[C@H]2c2ncco2)C(=O)N(S(=O)(=O)c2ccc(OC(F)(F)F)cc2)c2ccc(Cl)cc21 (stereo partly drawn) [Example 141, 5-Chloro-3-[2-methoxy-5-(4-methylpiperazin-1-ylmethyl)phenyl]-3-((S)-2-oxazol-2-yl-pyrrolidin-1-yl)-1-(4-trifluoromethoxybenzenesulfonyl)-1,3-dihydroindol-2-one] | 100 to 1000 nM
4 | COc1ccc(S(=O)(=O)N2C(=O)C(c3cc(CN4CCN(CCO)CC4)ccc3OC)(N3CCC[C@H]3c3ncco3)c3cc(C#N)ccc32)cc1 (stereo partly drawn) [Example 142, 5-Cyano-3-{5-[4-(2-hydroxyethyl)piperazin-1-ylmethyl]-2-methoxyphenyl}-1-(4-methoxybenzenesulfonyl)-3-((S)-2-oxazol-2-yl-pyrrolidin-1-yl)-1,3-dihydroindol-2-one] | < 10 nM
5 | COc1ccc(S(=O)(=O)N2C(=O)C(c3cc(CN4CCNC(=O)C4)ccc3OC)(N3CCC[C@H]3c3ncco3)c3cc(C#N)ccc32)cc1 (stereo partly drawn) [Example 143, 5-Cyano-1-(4-methoxy-benzenesulfonyl)-3-[2-methoxy-5-(3-oxo-piperazin-1-ylmethyl)phenyl]-3-((S)-2-oxazol-2-yl-pyrrolidin-1-yl)-1,3-dihydroindol-2-one] | < 10 nM
6 | COc1ccc(S(=O)(=O)N2C(=O)C(c3cc(CN4CCCN(C)CC4)ccc3OC)(N3CCC[C@H]3c3ncco3)c3cc(C#N)ccc32)cc1 (stereo partly drawn) [Example 144, 5-Cyano-1-(4-methoxybenzenesulfonyl)-3-[2-methoxy-5-(4-methyl-[1,4]diazepan-1-ylmethyl)phenyl]-3-((S)-2-oxazol-2-yl-pyrrolidin-1-yl)-1,3-dihydroindol-2-one] | < 10 nM
7 | COc1ccc(CN2CCN(C)CC2)cc1C1(N2CCC[C@H]2c2ncco2)C(=O)N(S(=O)(=O)c2ccc(OC(F)F)cc2)c2ccc(Cl)cc21 (stereo partly drawn) [Example 145, 5-Chloro-1-(4-difluoromethoxybenzenesulfonyl)-3-[2-methoxy-5-(4-methylpiperazin-1-ylmethyl)phenyl]-3-((S)-2-oxazol-2-yl-pyrrolidin-1-yl)-1,3-dihydroindol-2-one] | 10 to 100 nM
8 | COc1ccc(S(=O)(=O)N2C(=O)C(c3ccc(CN4CCOCC4)cc3OC)(N3CCC[C@H]3c3ncco3)c3cc(Cl)ccc32)cc1 (stereo partly drawn) [Example 146, 5-Chloro-1-(4-methoxybenzenesulfonyl)-3-(2-methoxy-4-(morpholin-4-ylmethyl)phenyl)-3-((S)-2-oxazol-2-yl-pyrrolidin-1-yl)-1,3-dihydroindol-2-one] | 10 to 100 nM
9 | COc1ccc(S(=O)(=O)N2C(=O)C(c3ccc(CN4CCN(CCO)CC4)cc3OC)(N3CCC[C@H]3c3ncco3)c3cc(C#N)ccc32)cc1 (stereo partly drawn) [Example 147, 5-Cyano-3-{4-[4-(2-hydroxyethyl)piperazin-1-ylmethyl]-2-methoxyphenyl}-1-(4-methoxybenzenesulfonyl)-3-((S)-2-oxazol-2-yl-pyrrolidin-1-yl)-1,3-dihydroindol-2-one] | < 10 nM
10 | CCN1CCN(Cc2ccc(C3(N4CCC[C@H]4c4ncco4)C(=O)N(S(=O)(=O)c4ccc(OC)cc4)c4ccc(C#N)cc43)c(OC)c2)CC1 (stereo partly drawn) [Example 148, 5-Cyano-3-[4-(4-ethylpiperazin-1-ylmethyl)-2-methoxyphenyl]-1-(4-methoxybenzenesulfonyl)-3-((S)-2-oxazol-2-yl-pyrrolidin-1-yl)-1,3-dihydroindol-2-one] | < 10 nM
11 | COc1ccc(S(=O)(=O)N2C(=O)C(c3cc(CN(C)C)ccc3OC)(N3C[C@H](O)C[C@H]3c3ncco3)c3cc(C#N)ccc32)cc1 (stereo partly drawn) [Example 150, 5-Cyano-3-(5-dimethylaminomethyl-2-methoxyphenyl)-3-((2S,4R)-4-hydroxy-2-oxazol-2-yl-pyrrolidin-1-yl)-1-(4-methoxybenzenesulfonyl)-1,3-dihydroindol-2-one] | < 10 nM
12 | CCNCc1ccc(OC)c(C2(N3C[C@H](O)C[C@H]3c3ncco3)C(=O)N(S(=O)(=O)c3ccc(OC)cc3)c3ccc(C#N)cc32)c1 (stereo partly drawn) [Example 151, 5-Cyano-3-(5-ethylaminomethyl-2-methoxyphenyl)-3-((2S,4R)-4-hydroxy-2-oxazol-2-yl-pyrrolidin-1-yl)-1-(4-methoxybenzenesulfonyl)-1,3-dihydroindol-2-one] | < 10 nM
13 | CCN1CCN(Cc2ccc(C3(N4CCC[C@H]4c4ncco4)C(=O)N(S(=O)(=O)c4ccc(C#N)cc4)c4ccc(Cl)cc43)c(OC)c2)CC1 (stereo partly drawn) [Example 152, 5-Chloro-3-[4-(4-ethylpiperazin-1-ylmethyl)-2-methoxyphenyl]-3-((S)-2-oxazol-2-yl-pyrrolidin-1-yl)-1-(4-cyanobenzenesulfonyl)-1,3-dihydroindol-2-one] | < 10 nM
14 | COc1ccc(S(=O)(=O)N2C(=O)C(c3ccc(CN4CCNCC4)cc3OC)(N3CCC[C@H]3c3ncco3)c3cc(C#N)ccc32)cc1 (stereo partly drawn) [Example 153, 5-Cyano-1-(4-methoxybenzenesulfonyl)-3-(2-methoxy-4-piperazin-1-ylmethylphenyl)-3-((S)-2-oxazol-2-yl-pyrrolidin-1-yl)-1,3-dihydroindol-2-one] | < 10 nM
15 | COc1ccc(S(=O)(=O)N2C(=O)C(c3ccc(CNCCO)cc3OC)(N3CCC[C@H]3c3ncco3)c3cc(C#N)ccc32)cc1 (stereo partly drawn) [Example 154, 5-Cyano-3-{4-[(2-hydroxyethylamino)methyl]-2-methoxyphenyl}-1-(4-methoxybenzenesulfonyl)-3-((S)-2-oxazol-2-yl-pyrrolidin-1-yl)-1,3-dihydroindol-2-one] | < 10 nM
16 | CNCc1ccc(OC)c(C2(N3CCCC3c3nccs3)C(=O)N(S(=O)(=O)c3ccc(OC)cc3)c3ccc(Cl)cc32)c1 (centres unmarked) [Example 155, 5-Chloro-1-(4-methoxybenzenesulfonyl)-3-(2-methoxy-5-methylaminomethylphenyl)-3-(2-thiazol-2-yl-pyrrolidin-1-yl)-1,3-dihydroindol-2-one] | < 10 nM
17 | COc1cc(CN(C)C)ccc1C1(N2CCC[C@H]2c2ncco2)C(=O)N(S(=O)(=O)c2ccc(C#N)cc2)c2ccc(Cl)cc21 (stereo partly drawn) [Example 156, 5-Chloro-3-(4-dimethylaminomethyl-2-methoxyphenyl)-3-((S)-2-oxazol-2-yl-pyrrolidin-1-yl)-1-(4-cyanobenzenesulfonyl)-1,3-dihydroindol-2-one] | 10 to 100 nM
18 | COc1cc(CN2CCCC2)ccc1C1(N2CCC[C@H]2c2ncco2)C(=O)N(S(=O)(=O)c2ccc(C#N)cc2)c2ccc(Cl)cc21 (stereo partly drawn) [Example 157, 5-Chloro-3-(2-methoxy-4-pyrrolidin-1-ylmethylphenyl)-3-((S)-2-oxazol-2-yl-pyrrolidin-1-yl)-1-(4-cyanobenzenesulfonyl)-1,3-dihydroindol-2-one] | 10 to 100 nM
19 | COc1cc(CN2CCN(C)CC2)ccc1C1(N2CCC[C@H]2c2ncco2)C(=O)N(S(=O)(=O)c2ccc(C#N)cc2)c2ccc(Cl)cc21 (stereo partly drawn) [Example 158, 5-Chloro-3-[2-methoxy-4-(4-methylpiperazin-1-ylmethyl)phenyl]-3-((S)-2-oxazol-2-yl-pyrrolidin-1-yl)-1-(4-cyanobenzenesulfonyl)-1,3-dihydroindol-2-one] | < 10 nM
20 | CCCNCc1ccc(C2(N3CCC[C@H]3c3ncco3)C(=O)N(S(=O)(=O)c3ccc(C#N)cc3)c3ccc(Cl)cc32)c(OC)c1 (stereo partly drawn) [Example 159, 5-Chloro-3-(2-methoxy-4-propylaminomethylphenyl)-3-((S)-2-oxazol-2-yl-pyrrolidin-1-yl)-1-(4-cyanobenzenesulfonyl)-1,3-dihydroindol-2-one] | 10 to 100 nM
21 | COc1ccc(S(=O)(=O)N2C(=O)C(c3cc(CN4CCNCC4)ccc3OC)(N3C[C@H](O)C[C@H]3c3ncco3)c3cc(C#N)ccc32)cc1 (stereo partly drawn) [Example 160, 5-Cyano-3-((2S,4R)-4-hydroxy-2-oxazol-2-yl-pyrrolidin-1-yl)-1-(4-methoxybenzenesulfonyl)-3-(2-methoxy-5-piperazin-1-ylmethylphenyl)-1,3-dihydroindol-2-one] | < 10 nM
22 | C=CCNCc1ccc(OC)c(C2(N3CCC[C@H]3c3ncco3)C(=O)N(S(=O)(=O)c3ccc(OC)cc3)c3ccc(Cl)cc32)c1 (stereo partly drawn) [Example 161, 5-Chloro-3-(5-allylaminomethyl-2-methoxyphenyl)-1-(4-methoxybenzenesulfonyl)-3-((S)-2-oxazol-2-yl-pyrrolidin-1-yl)-1,3-dihydroindol-2-one] | < 10 nM
23 | COc1cc(CN2CCNCC2)ccc1C1(N2CCC[C@H]2c2ncco2)C(=O)N(S(=O)(=O)c2ccc(C#N)cc2)c2ccc(Cl)cc21 (stereo partly drawn) [Example 162, 5-Chloro-3-(2-methoxy-4-piperazin-1-ylmethylphenyl)-3-((S)-2-oxazol-2-yl-pyrrolidin-1-yl)-1-(4-cyanobenzenesulfonyl)-1,3-dihydroindol-2-one] | < 10 nM
